Experimental data as given in ChEMBL document CHEMBL5729410, “Urea-substituted aromatic ring-linked dioxinoquinoline compounds, preparation method and uses thereof” (2022).

Experiments:
[1] = molecular target: Proto-oncogene tyrosine-protein kinase receptor Ret (Homo sapiens, UniProt P07949); assay: Assay of Small Molecular Compounds for Inhibiting the Activity of RET Kinase: The assay is based on the LANCE TR-FRET technology of Perkin Elmer Inc., and the assay method is as follows:1.
[2] = molecular target: Vascular endothelial growth factor receptor 2 (Homo sapiens, UniProt P35968); assay: Assay of Small Molecular Compounds for Inhibiting the Activity of VEGFR-2 Kinase: The assay is based on the LANCE TR-FRET technology of Perkin Elmer Inc., and the assay method is as follows:1.
Vascular endothelial growth factor receptor 2, sequence (P35968 whole entry): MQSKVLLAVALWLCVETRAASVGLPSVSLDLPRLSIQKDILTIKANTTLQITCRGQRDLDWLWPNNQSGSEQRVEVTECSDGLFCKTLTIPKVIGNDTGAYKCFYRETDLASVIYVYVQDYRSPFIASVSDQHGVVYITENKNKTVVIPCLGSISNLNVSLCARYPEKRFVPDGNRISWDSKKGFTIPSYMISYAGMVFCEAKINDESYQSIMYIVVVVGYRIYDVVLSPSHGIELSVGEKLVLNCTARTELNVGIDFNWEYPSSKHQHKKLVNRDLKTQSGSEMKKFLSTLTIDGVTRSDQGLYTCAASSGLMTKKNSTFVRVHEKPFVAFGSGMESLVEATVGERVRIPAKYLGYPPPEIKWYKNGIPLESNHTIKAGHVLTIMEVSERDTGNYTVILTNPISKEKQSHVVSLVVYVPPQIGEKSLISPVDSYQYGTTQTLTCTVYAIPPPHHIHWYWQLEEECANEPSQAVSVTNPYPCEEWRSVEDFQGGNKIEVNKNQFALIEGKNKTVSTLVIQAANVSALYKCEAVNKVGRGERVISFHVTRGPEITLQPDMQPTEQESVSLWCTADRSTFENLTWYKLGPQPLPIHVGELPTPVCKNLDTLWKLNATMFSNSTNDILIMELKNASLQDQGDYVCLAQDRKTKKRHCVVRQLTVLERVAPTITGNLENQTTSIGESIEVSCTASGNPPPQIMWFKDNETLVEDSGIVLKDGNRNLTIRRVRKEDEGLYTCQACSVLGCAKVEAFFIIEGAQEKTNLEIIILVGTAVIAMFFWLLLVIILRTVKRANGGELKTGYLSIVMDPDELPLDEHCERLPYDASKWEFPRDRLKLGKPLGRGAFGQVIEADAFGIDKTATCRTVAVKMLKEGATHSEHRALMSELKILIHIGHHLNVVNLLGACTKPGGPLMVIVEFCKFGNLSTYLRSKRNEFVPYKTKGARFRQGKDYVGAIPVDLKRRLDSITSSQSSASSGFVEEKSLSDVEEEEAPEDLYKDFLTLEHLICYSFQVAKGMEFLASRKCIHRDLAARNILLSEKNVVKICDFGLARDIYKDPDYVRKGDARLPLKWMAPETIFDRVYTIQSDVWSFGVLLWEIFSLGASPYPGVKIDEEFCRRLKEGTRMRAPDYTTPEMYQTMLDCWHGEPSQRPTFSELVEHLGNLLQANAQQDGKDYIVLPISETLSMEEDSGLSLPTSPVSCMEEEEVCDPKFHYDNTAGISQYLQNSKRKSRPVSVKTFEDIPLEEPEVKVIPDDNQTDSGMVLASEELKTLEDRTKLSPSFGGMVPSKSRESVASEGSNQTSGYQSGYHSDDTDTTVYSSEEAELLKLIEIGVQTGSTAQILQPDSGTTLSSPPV

Proto-oncogene tyrosine-protein kinase receptor Ret, sequence (P07949 whole entry): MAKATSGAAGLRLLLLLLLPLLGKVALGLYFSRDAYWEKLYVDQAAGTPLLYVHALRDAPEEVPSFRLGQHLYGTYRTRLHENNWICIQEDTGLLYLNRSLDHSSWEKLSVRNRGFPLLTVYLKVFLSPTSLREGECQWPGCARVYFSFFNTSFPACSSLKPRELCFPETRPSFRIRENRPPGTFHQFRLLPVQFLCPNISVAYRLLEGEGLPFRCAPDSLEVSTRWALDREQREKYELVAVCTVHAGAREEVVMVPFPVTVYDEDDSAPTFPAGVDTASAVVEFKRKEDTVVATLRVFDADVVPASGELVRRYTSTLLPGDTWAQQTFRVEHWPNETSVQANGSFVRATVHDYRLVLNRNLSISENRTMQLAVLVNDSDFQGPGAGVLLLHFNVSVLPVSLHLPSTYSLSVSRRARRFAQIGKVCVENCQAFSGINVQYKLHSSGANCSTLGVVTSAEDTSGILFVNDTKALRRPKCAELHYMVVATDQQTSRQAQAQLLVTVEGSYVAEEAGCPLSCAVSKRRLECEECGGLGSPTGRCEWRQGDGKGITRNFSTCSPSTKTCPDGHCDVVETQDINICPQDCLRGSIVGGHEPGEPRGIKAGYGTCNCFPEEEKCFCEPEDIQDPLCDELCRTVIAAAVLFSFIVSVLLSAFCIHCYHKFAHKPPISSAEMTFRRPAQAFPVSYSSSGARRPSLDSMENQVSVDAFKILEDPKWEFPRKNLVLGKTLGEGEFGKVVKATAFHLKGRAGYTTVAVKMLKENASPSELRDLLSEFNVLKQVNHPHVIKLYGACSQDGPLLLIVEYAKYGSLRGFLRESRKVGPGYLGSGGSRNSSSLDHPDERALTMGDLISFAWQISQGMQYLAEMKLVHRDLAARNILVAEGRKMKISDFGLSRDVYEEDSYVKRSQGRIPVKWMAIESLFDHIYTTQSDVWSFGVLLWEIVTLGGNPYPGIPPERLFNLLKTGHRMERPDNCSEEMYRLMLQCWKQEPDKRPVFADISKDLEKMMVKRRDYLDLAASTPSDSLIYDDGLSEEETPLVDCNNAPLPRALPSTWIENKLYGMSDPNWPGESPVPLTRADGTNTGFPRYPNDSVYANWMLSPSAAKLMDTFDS

| Compound | IC50 [1] [nM] | IC50 [2] [nM] |
| --- | --- | --- |
| O=C(Nc1ccc(Oc2ccnc3cc(OC4CCOCC4)c4c(c23)OCCO4)cc1Cl)NC1CC1 | < 50 | – |
| CN(CCCOc1cc2nccc(Oc3ccc(NC(=O)Nc4ccc(Cl)c(C(F)(F)F)c4)cc3)c2c2c1OCCO2)C1CCC1 | < 50 | < 50 |
| O=C(Nc1ccc(Oc2ccnc3cc(OCCCN4CCOCC4)c4c(c23)OCCO4)cc1F)NC1CC1 | < 50 | < 50 |
